Counter-ions that a name gives are not always drawn. Like-named read-outs stand apart in the source and are kept apart here.
Columns and labels:
MDA-MB-157 [1] = assay: ATP depletion cytotoxicity assay 48 hr; type: cell-based, human; conditions: MDA-MB-157; CXR1002 300 μM; 48 hours
Method: (§2) Assay replicates were independent in time and up to 4 replicates were performed per cell line.
(§3) Cells were plated at the optimal plating density for that cell line in 96-well plates and allowed to attach overnight. The next day, the medium was removed and replaced with fresh medium containing the dose ranges of test items. […] There were 3 replicates for each test item concentration.
(§4) Following exposure to Test Items, the CellTitre-Glo Luminescent Cell Viability Assay to measure ATP content was performed according to the manufacturer's detailed instructions (Promega Corporation, Technical Bulletin No. 288, and Cell notes, Issue 10, 2004).
(§5) Cells were plated at the optimal plating density for that cell line in 96-well plates and allowed to attach overnight. The next day, cells were pre-treated with the inhibitors UO126 or LY294002 (see Tables 18 & 20) for 2 hrs, the medium was removed and replaced with fresh medium containing the appropriate dose of the test item. […] Cells were exposed to these compounds in Roswell Park Memorial Institute (RPMI) medium containing 10% Foetal Calf Serum (FCS) and 2 mM Glutamine at 37° C. and 5% CO2 for 48 hours. There were 3 replicates for each test item concentration.
(§6) Following exposure to Test Items, the CellTitre-Glo Luminescent Cell Viability Assay to measure ATP content will be performed according to the manufacturer's detailed instructions (Promega Corporation, Technical Bulletin No. 288, and Cell notes, Issue 10, 2004).

HepG2 = assay: SRB cytotoxicity assay 48 hr; type: cell-based, human; conditions: read-out: IC50 Values After 48 Hrs Exposure
Method: (§7) The SRB assay was performed according to the method specified by the NIC/NIH. […] Assay replicates were independent in time and up to 4 replicates were performed per cell line.

[2] = system: hepatic peroxisome proliferation (PPARα); assay: Hepatic peroxisome proliferation (cyanide-insensitive palmitoyl CoA oxidation) in rats; type: in vivo, rat; conditions: administration to rats
Description: The earliest recognised characteristic of PPARα agonists was their ability to induce peroxisome proliferation in hepatocytes. The PPARα response is reflected in the increased transcription of mitochondrial and peroxisomal lipid metabolism, sterol, and bile acid biosynthesis and retinol metabolism genes (Andersen (2008)).
Peroxisome proliferation occurs as a result of the interaction of a chemical with PPARα. This leads to an increase in the synthesis of peroxisomal and lipid-metabolising enzymes and, consequently, an increase in size and number of peroxisomes. Cyanide-insensitive palmitoyl CoA oxidation is an accepted marker of peroxisome proliferation, and was used to highlight PPARα activation in vitro and in vivo.

MCF-7 = assay: SRB cytotoxicity assay 48 hr; type: cell-based, human; conditions: Homo sapiens, MCF7, 48 h, read-out: IC50 Values After 48 Hrs Exposure
Method: as §7

CYP2C9 = CYP2C9 (Homo sapiens, UniProt P11712); assay: Cytochrome P450 isozyme inhibition; type: in vitro ADME; conditions: under the conditions used (unpublished data); read-out: IC50 towards CYP2C9
CYP2C9, sequence (P11712 whole entry): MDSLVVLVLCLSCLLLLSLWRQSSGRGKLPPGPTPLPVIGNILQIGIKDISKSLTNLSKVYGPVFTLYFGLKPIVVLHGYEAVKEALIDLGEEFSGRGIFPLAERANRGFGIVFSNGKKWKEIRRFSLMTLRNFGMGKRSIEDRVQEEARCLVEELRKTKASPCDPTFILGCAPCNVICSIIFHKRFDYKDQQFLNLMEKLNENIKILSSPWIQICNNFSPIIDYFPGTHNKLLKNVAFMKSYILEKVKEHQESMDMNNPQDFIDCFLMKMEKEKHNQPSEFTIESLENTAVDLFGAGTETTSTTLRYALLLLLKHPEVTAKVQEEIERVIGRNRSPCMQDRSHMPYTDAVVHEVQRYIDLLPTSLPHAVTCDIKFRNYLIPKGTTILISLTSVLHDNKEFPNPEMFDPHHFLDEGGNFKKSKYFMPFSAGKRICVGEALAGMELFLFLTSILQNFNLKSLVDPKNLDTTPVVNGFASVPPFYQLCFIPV
Description: There is no evidence that APFO is metabolised in mammals once dissociated to form perfluorooctanoate.

MDA-MB-157 [3] = assay: SRB cytotoxicity assay 48 hr; type: cell-based, human; conditions: Homo sapiens, MDA-MB-157, 48 h, read-out: IC50 Values After 48 Hrs Exposure
Method: as §7

Hep3B = assay: SRB cytotoxicity assay 48 hr; type: cell-based, human; conditions: Homo sapiens, 48 h, read-out: IC50 Values After 48 Hrs Exposure
Method: as §7

CaCo-2 = assay: SRB cytotoxicity assay 48 hr; type: cell-based, human; conditions: read-out: IC50 Values After 48 Hrs Exposure
Method: as §7

HT-29 = assay: SRB cytotoxicity assay 48 hr; type: cell-based, human; conditions: Homo sapiens, HT-29, 48 h, read-out: IC50 Values After 48 Hrs Exposure
Method: as §7

[4] = system: panel of human tumour-derived cell lines; assay: Hoechst 3342 staining (apoptotic cells) in the SRB cell line panel; type: cell-based
A549 = assay: SRB cytotoxicity assay 48 hr; type: cell-based, human; conditions: Homo sapiens, A549, 48 h, read-out: IC50 Values After 48 Hrs Exposure
Method: as §7

normal pancreas tissue = assay: Microarray ER stress response in normal pancreas (28 day study in rat); type: in vivo
Description: Chemical toxicants such as tunicamycin and thapsigargin cause an accumulation of unfolded protein aggregates in the ER lumen (Schroder (2008)), (Harding (2002)), (Zhang (2008)). Whilst it is fair to say that many chemicals, drugs and toxicants induce ER stress, not all do. […] The phthalate DEHP and the PPARα agonist WY14,643 were also studied.

[5] = without reported adverse effects; cited from earlier work
A375 = assay: SRB cytotoxicity assay 48 hr; type: cell-based, human; conditions: Homo sapiens, A-375, 48 h, read-out: IC50 Values After 48 Hrs Exposure
Method: as §7

Male Sprague Dawley rats [6] = assay: Dietary APFO (300 ppm) study in rats: plasma glucose, triglycerides, cholesterol, AST, ALT, APFO level; type: in vivo, rat; parameters: Glucose / Triglycerides / ALT / AST: unit not given here; conditions: for ALT / AST / Glucose / Triglycerides: plasma, 300 ppm in diet
PC3 = assay: SRB cytotoxicity assay 48 hr; type: cell-based, human; conditions: Homo sapiens, PC-3, 48 h, read-out: IC50 Values After 48 Hrs Exposure
Method: as §7

A2780 = assay: SRB cytotoxicity assay 48 hr; type: cell-based, human; conditions: Homo sapiens, A2780, 48 h, read-out: IC50 Values After 48 Hrs Exposure
Method: as §7

[7] = Dietary APFO (300 ppm) study in rats: plasma glucose, triglycerides, cholesterol, AST, ALT, APFO level; type: in vivo, rat; parameters: Triglycerides / Cholesterol / Glucose: unit not given here; conditions: male, Sprague Dawley, rat, oral, 300 ppm in diet
Method: (§1) Rats were sacrificed at 7, 14, 28 and 84 days. Blood from each study animal was taken by cardiac puncture into lithium/heparin-coated tubes for separation of plasma. Plasma was analysed for glucose, triglycerides, cholesterol, AST and ALT (unpublished data).

Male Sprague Dawley rats [8] = assay: as above; type: in vivo, rat; parameters: Triglycerides / Cholesterol / Glucose: unit not given here; conditions: 300 ppm in diet
Method: as §1

[9] = system: panel of human tumour-derived cell lines; assay: BrdU incorporation (cell proliferation) in the SRB cell line panel; type: cell-based; conditions: 48 hrs
Capan2 = assay: ATP depletion cytotoxicity assay 48 hr; type: cell-based, human; conditions: DPQ 20 μM + CXR1002 0-1 mM; Capan2
Method: as §2, §3, §4, §5, §6

SW1353 = assay: ATP depletion cytotoxicity assay 48 hr; type: cell-based, human; conditions: DPQ 20 μM + CXR1002 0-1 mM; SW1353
Method: as §4
(§8) Cells were plated at the optimal plating density for that cell line in 96-well plates and allowed to attach overnight. […] Cells were exposed to these compounds in Roswell Park Memorial Institute (RPMI) medium containing 10% Foetal Calf Serum (FCS) and 2 mM Glutamine at 37° C. and 5% CO2 for 48 hours. There were 3 replicates for each test item concentration.
as §6

HPAFII = assay: ATP depletion cytotoxicity assay 48 hr; type: cell-based, human; conditions: DPQ 20 μM + CXR1002 0-1 mM; HPAFII
Method: as §4, §8, §6

[10] = system: panel of tumour cell lines; assay: ATP cytotoxicity assay on the panel of tumour cell lines (CXR1002 alone; test items alone vs combined with CXR1002); conditions: a number of the cell lines; single dose of CXR1002; 48 hours
Method: as §7
Cells were plated at the optimal plating density for that cell line in 96-well plates and allowed to attach overnight. The next day, the medium was removed and replaced with fresh medium containing the dose ranges of test items. The cells were exposed to 5-FU, cisplatin, docetaxel, doxorubicin, geldanamycin, gemcitabine, rapamycin or roscovitine in Roswell Park Memorial Institute (RPMI) medium containing 10% Foetal Calf Serum (FCS) and 2 mM Glutamine at 37° C. and 5% CO2 for 48 hours. […] There were 3 replicates for each test item concentration.
as §4

H (chondrosarcoma) = assay: ATP depletion cytotoxicity assay 48 hr; conditions: LY294002 12.5 μM + CXR1002 0-1 mM; sarcoma cell line H most notably
Method: as §2, §3
Cells were plated at the optimal plating density for that cell line in 96-well plates and allowed to attach overnight. The next day, cells were pre-treated with the inhibitors UO126 or LY294002 (see Tables 18 & 20) for 2 hrs, the medium was removed and replaced with fresh medium containing the appropriate dose of the test item. […] Cells that were to be treated with DPQ received no pre-treatment. […] There were 3 replicates for each test item concentration.

primary rat hepatocytes = conditions: Bjork (2009); cited from earlier work
rats [11] = conditions: doses below those causing maternal toxicity; cited from earlier work
rats [12] = conditions: cited from earlier work
[13] = in vivo; cited from earlier work
[14] = following oral exposure; literature; cited from earlier work
[15] = biological target: liver X receptor β (LXRβ) (Homo sapiens, UniProt P55055); conditions: ref (14); cited from earlier work
liver X receptor β (LXRβ), sequence (P55055 whole entry, species assumed): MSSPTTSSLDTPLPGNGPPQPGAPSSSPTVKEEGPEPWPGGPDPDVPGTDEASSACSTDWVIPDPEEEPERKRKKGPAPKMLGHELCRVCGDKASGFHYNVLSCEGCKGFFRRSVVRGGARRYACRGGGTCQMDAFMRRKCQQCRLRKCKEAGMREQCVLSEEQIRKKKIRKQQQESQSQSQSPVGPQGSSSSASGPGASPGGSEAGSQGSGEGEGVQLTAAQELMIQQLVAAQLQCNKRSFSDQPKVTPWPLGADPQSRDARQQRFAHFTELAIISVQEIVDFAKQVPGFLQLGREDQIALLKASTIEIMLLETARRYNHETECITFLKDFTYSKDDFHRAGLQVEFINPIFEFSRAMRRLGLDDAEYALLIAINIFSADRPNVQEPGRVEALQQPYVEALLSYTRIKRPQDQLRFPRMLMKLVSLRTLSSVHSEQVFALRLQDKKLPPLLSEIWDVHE

[16] = cited from earlier work
[17] = biological target: retinoid X receptor α (RXRα) (Homo sapiens, UniProt P19793); conditions: ref (14); cited from earlier work
retinoid X receptor α (RXRα), sequence (P19793 whole entry, species assumed): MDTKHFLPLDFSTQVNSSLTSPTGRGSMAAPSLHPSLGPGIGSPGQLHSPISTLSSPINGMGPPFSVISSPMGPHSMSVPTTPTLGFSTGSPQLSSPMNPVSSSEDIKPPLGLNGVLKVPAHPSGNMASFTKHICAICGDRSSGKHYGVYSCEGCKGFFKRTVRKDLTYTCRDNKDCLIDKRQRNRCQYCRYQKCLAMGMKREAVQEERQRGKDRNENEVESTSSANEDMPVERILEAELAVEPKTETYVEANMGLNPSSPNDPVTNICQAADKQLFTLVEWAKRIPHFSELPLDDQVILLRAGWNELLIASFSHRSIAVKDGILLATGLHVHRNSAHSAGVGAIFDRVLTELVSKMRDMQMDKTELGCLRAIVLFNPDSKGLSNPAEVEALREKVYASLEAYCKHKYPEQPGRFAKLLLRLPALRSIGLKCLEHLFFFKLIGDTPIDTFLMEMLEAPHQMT

Breast cancer cell lines = conditions: read-out: IC50 (Concentration, literature); Mol. Cancer Ther. (2002); cited from earlier work

For `O=c1[nH]cc(F)c(=O)[nH]1` [5-FU, 5-Fluorouracil, reference compound], the “sensitivity to combination with CXR1002 vs test item alone” value (from here on “sensitivity … vs test item alone”) (MDA-MB-157 [1]) was “apparent increase in sensitivity”.
In the case of `O=C(O)C(F)(F)C(F)(F)C(F)(F)C(F)(F)C(F)(F)C(F)(F)C(F)(F)F` [APFO, Ammonium Perfluorooctanoate], the IC50 (HepG2; Homo sapiens, HepG2, 48 h) is reported as about 160 µM, the IC50 (HepG2) is reported as 167 ± 97.1 µM and the “hepatic peroxisome proliferation (induction of cyanide-insensitive palmitoyl CoA oxidation)” value [2] is reported as “led to hepatic peroxisome proliferation”. It also gave an IC50 (MCF-7) of 388 ± 227 µM, an IC50 (CYP2C9) of 0.78 µM and an IC50 (MDA-MB-157 [3]) of 512 ± 194 µM. For the same compound, the IC50 (Hep3B) was 273 ± 80.2 µM, the IC50 (CaCo-2; Homo sapiens, Caco-2, 48 h) was about 740 µM and the IC50 (CaCo-2) was 737 ± 245 µM. For the same compound, the IC50 (HT-29) was 283 ± 5.8 µM, the induction of apoptosis ([4]; 10 μM) was “little effect” and the induction of apoptosis ([4]; 30 μM) was “variable responses”. The induction of apoptosis ([4]; 300 μM) was “marked induction of apoptosis”, the IC50 (A549) was 223 ± 35.4 µM and the ER stress response (normal pancreas tissue) was “not seen”. The “serum concentration in workers involved in manufacture” value [5] was at most 275 µM, the IC50 (A375) was 230 ± 10 µM and the adverse clinical observations (Male Sprague Dawley rats [6]; after one year of continuous dietary dosing, 300 ppm) was “No adverse clinical observations”. For the same compound, the ALT (Male Sprague Dawley rats [6]; Days 1 (so in the source)) was 101.90 ± 12.19, the ALT (Male Sprague Dawley rats [6]; Days 2 (so in the source)) was 119.45 ± 19.27 and the AST (Male Sprague Dawley rats [6]; Days 2 (so in the source)) was 120.00 ± 16.47. The ALT (Male Sprague Dawley rats [6]; Days 4 (so in the source)) was 98.99 ± 24.44, the AST (Male Sprague Dawley rats [6]; Days 4 (so in the source)) was 101.80 ± 19.17 and the ALT (Male Sprague Dawley rats [6]; Days 12 (so in the source)) was 91.89 ± 14.88. For the same compound, the AST (Male Sprague Dawley rats [6]; Days 12 (so in the source)) was 92.63 ± 12.19, the Glucose (Male Sprague Dawley rats [6]; Week 1) was 14.31 ± 1.88 and the Glucose (Male Sprague Dawley rats [6]; Week 2) was 16.98 ± 3.21. It also gave a Triglycerides (Male Sprague Dawley rats [6]; Week 4) of 0.57 ± 0.13, a Triglycerides (Male Sprague Dawley rats [6]; Week 12) of 0.63 ± 0.15 and an IC50 (PC3) of 317 ± 59.2 µM. For the same compound, the IC50 (A2780) was 260 ± 28.3 µM, the concentration at 2 weeks ([7]; week 2) was 157 ± 77.8 µM and the concentration at 4 weeks ([7]; week 4) was 257 ± 38.9 µM. For the same compound, the Triglycerides (Male Sprague Dawley rats [8]; Week 1) was 0.41 ± 0.12, the Cholesterol (Male Sprague Dawley rats [8]; Week 2) was 1.55 ± 0.27 and the Triglycerides (Male Sprague Dawley rats [8]; Week 2) was 0.62 ± 0.13. It also gave a Cholesterol (Male Sprague Dawley rats [8]; Week 4) of 1.70 ± 0.29, a Glucose (Male Sprague Dawley rats [8]; Week 4) of 15.34 ± 2.64 and a Cholesterol (Male Sprague Dawley rats [8]; Week 12) of 1.75 ± 0.33. The Glucose (Male Sprague Dawley rats [8]; Week 12) was 13.12 ± 1.23, the BrdU incorporation ([9]; 10 μM) was “No marked effects” and the BrdU incorporation ([9]; 30 μM) was “variable”. For the same compound, the BrdU incorporation ([9]; 300 μM, all but one of the cell lines) was “Significant suppression of BrdU incorporation”.
For `CCCCC(CC)COC(=O)c1ccccc1C(=O)OCC(CC)CCCC` (stereo not shown) [DEHP], the ER stress response (normal pancreas tissue) was “No evidence of ER stress response was detected”.
With `O=C1NCCc2c(OCCCCN3CCCCC3)cccc21` [DPQ, reference compound] the “sensitivity in conjunction with CXR1002 vs CXR1002 alone” value (from here on “sensitivity … vs CXR1002 alone”) (Capan2) was “increased sensitivity”, the “sensitivity … vs CXR1002 alone” value (SW1353) was “increased sensitivity” and the “sensitivity … vs CXR1002 alone” value (HPAFII) was “increased sensitivity”.
For `COc1cccc2c1C(=O)c1c(O)c3c(c(O)c1C2=O)C[C@@](O)(C(=O)CO)C[C@@H]3O[C@H]1C[C@H](N)[C@H](O)[C@H](C)O1` [Doxorubicin, Doxorubicin hydrochloride], the “sensitivity … vs test item alone” value [10] was “increase the sensitivity”.
For `O=c1cc(N2CCOCC2)oc2c(-c3ccccc3)cccc12` [LY294002, reference compound], the “cytotoxic efficacy in conjunction with CXR1002 vs CXR1002 alone” value (H (chondrosarcoma)) was “increased efficacy”.
For `O=C(O)C(F)(F)C(F)(F)C(F)(F)C(F)(F)C(F)(F)C(F)(F)C(F)(F)F` [PFOA, perfluorooctanoic acid], the “concentration causing increased expression of DDIT3/CHOP/GADD153” value (primary rat hepatocytes) is listed as at least 30 µM, the “teratogenic or foetotoxic effects” value (rats [11]) is listed as “no teratogenic or foetotoxic effects” and the “tumour incidence (liver, pancreas acinar cell, testes Leydig cell adenomas)” value (rats [12]; 30 ppm in the diet) is listed as “not at 30 ppm”. For the same compound, the “tumour incidence (liver, pancreas acinar cell, testes Leydig cell adenomas)” value (rats [12]; 300 ppm in the diet) was “increased incidence of benign tumours”, the acute oral toxicity [13] was “moderate acute oral toxicity” and the metabolism [14] was “not metabolised”. For the same compound, the “activation of LXRβ” value [15] was “Neither liver X receptor β (LXRβ) nor the common heterodimerization partner retinoid X receptor α (RXRα) are activated”, the “clearance of blood levels” value ([16]; female rats, 24 hrs after dosing) was over 95% and the accumulation in blood ([16]; female rats, 25 mg/kg oral after 10 previous similar doses) was “does not appear to accumulate”. For the same compound, the “extent of biliary excretion” value ([16]; female rats) was under 1.0%, the “time to peak blood levels” value ([16]; single gavage 25 mg/kg, rats) was 1 to 2 h and the total radioactivity absorbed ([16]; single oral dose 14C-PFOA 11 mg/kg, male rats, at 24 hrs) was “at least 93%”. For the same compound, the “activation of RXRα” value [17] was “Neither liver X receptor β (LXRβ) nor the common heterodimerization partner retinoid X receptor α (RXRα) are activated”.
In the case of `N#CC(=C(/N)Sc1ccccc1N)/C(C#N)=C(\N)Sc1ccccc1N` [U0126], the IC50 (Breast cancer cell lines) is listed as 10 to 20 µM.
For `Cc1cccc(Nc2cc(Cl)nc(SCC(=O)O)n2)c1C` [WY14,643], the ER stress response (normal pancreas tissue) was “No evidence of ER stress response was detected”.
In the case of `Nc1ccn([C@@H]2O[C@H](CO)[C@@H](O)C2(F)F)c(=O)n1` [gemcitabine, Gemcitabine], the “sensitivity … vs test item alone” value [10] is reported as “increase the sensitivity”.
In the case of `CC[C@H](CO)Nc1nc(NCc2ccccc2)c2ncn(C(C)C)c2n1` [roscovitine, Roscovitine], the “sensitivity … vs test item alone” value [10] is reported as “increase the sensitivity”.
